Experimental data as given in US9827312B2, “Method for carrying therapeutic substances into cells” (MAGFORCE AG, priority 2005, dated 2017).

Key:
Settings in all cases: procedure of example 2
[1] = test system: bronchial carcinoma cells NSCLC; assay: Increase in the activity of cytostatics with nanoparticles (Table 1), NSCLC; format: cell-based
Experimental: (§1) The experiments in vitro were carried out with the cell lines BT20 (breast carcinoma) and WiDr (colon carcinoma). The tumor cells were taken from tumor tissue of a patient and cultivated as described in DE 199 12 798 C1. 2×10^6 cells, respectively, were prepared in a 75 cm^3 cell culture bottle with 25 ml of cell culture medium (RPMI+10% FBS+1.2 ml of pyruvate for WiDr cells, or respectively BME+10% FBS+pyruvate+5 ml of non-essential amino acids+5 ml glutamine for BT20 cells) for testing the efficacy of the cefamandole/nanoparticle mixture. 136 μl of magnetic fluid MFL AS M01 (iron oxide nanoparticle coated with polycondensed N-(2-aminoethyl)-3-(trimethoxysilyl)propylamine, manufacturer: MagForce Nanotechnologies GmbH, Berlin, Germany) (cFe=2 mol/l) and 390 μl of cefamandole solution (stock solution 1 mg/ml in 0.9% NaCl) were added to said cell suspension.
(§2) Corresponding to the experiment procedure according to example 2, the following […] were tested in vitro with the active ingredients listed in table 1: a) glioblastoma human cell line RUSIRS 1; b) breast carcinoma cell lines BT20; c) colon carcinoma cell line WiDR; d) bronchial carcinoma cells NSCLC, e) rectal carcinoma cells and f) prostate carcinoma cell line DU 145.
(§3) In all cases, an increased activity of the cytostatic could be observed. The increase in activity is indicated in parentheses after the respective cytostatic, wherein (+) means an increase of about 5% to 80% and (++) means an increase of 80% to 500%.

[2] = test system: colon carcinoma cell line WiDr; assay: Increase in the activity of cytostatics with nanoparticles (Table 1), WiDr; format: cell-based, human
Experimental: as §1, §2, §3

[3] = test system: breast carcinoma cell lines BT20; assay: Increase in the activity of cytostatics with nanoparticles (Table 1), BT20; format: cell-based, human
Experimental: as §1, §2, §3

[4] = test system: rectal carcinoma cells; assay: Increase in the activity of cytostatics with nanoparticles (Table 1), rectal carcinoma; format: cell-based
Experimental: as §1, §2, §3

[5] = test system: neuroglioma cell line H4; assay: Increase in the activity of cytostatics with nanoparticles (Table 1), H4; format: cell-based
Experimental: as §1, §2, §3

[6] = test system: prostate carcinoma cell line DU 145; assay: Increase in the activity of cytostatics with nanoparticles (Table 1), DU 145; format: cell-based
Experimental: as §1, §2, §3

[7] = test system: glioblastoma human cell line RUSIRS1; assay: Increase in the activity of cytostatics with nanoparticles (Table 1), RUSIRS1; format: cell-based
Experimental: as §1, §2, §3

SMILES | increase in the activity of cytostatics [1] | increase in the activity of cytostatics [2] | increase in the activity of cytostatics [3] | increase in the activity of cytostatics [4] | increase in the activity of cytostatics [5] | increase in the activity of cytostatics [6] | increase in the activity of cytostatics [7]
Nc1nc2c(ncn2COCCO)c(=O)[nH]1 [acyclovir] | (+) ((+) means an increase of about 5% to 80%) | (+) ((+) means an increase of about 5% to 80%) | (+) ((+) means an increase of about 5% to 80%) | (++) ((++) means an increase of 80% to 500%) | (+) ((+) means an increase of about 5% to 80%) | (+) ((+) means an increase of about 5% to 80%) | (+) ((+) means an increase of about 5% to 80%)
CC[C@@H]1/C=C(\C)C[C@H](C)C[C@H](OC)[C@H]2O[C@@](O)(C(=O)C(=O)N3CCCC[C@H]3C(=O)O[C@H](/C(C)=C/[C@@H]3CC[C@@H](O)[C@H](OC)C3)[C@H](C)[C@@H](O)CC1=O)[C@H](C)C[C@@H]2OC [ascomycin] | (+) ((+) means an increase of about 5% to 80%) | (+) ((+) means an increase of about 5% to 80%) | (+) ((+) means an increase of about 5% to 80%) | (+) ((+) means an increase of about 5% to 80%) |  | (+) ((+) means an increase of about 5% to 80%) | (++) ((++) means an increase of 80% to 500%)
CN1CCCC(n2nc(Cc3ccc(Cl)cc3)c3ccccc3c2=O)CC1 (stereo not shown) [azelastine] |  |  | (+) ((+) means an increase of about 5% to 80%) | (+) ((+) means an increase of about 5% to 80%) | (+) ((+) means an increase of about 5% to 80%) | (+) ((+) means an increase of about 5% to 80%) | (+) ((+) means an increase of about 5% to 80%)
Cn1c(CCCC(=O)O)nc2cc(N(CCCl)CCCl)ccc21 [bendamustine] | (+) ((+) means an increase of about 5% to 80%) |  | (+) ((+) means an increase of about 5% to 80%) |  |  | (+) ((+) means an increase of about 5% to 80%) | (+) ((+) means an increase of about 5% to 80%)
CS(=O)(=O)OCCCCOS(C)(=O)=O [busulfan] | (++) ((++) means an increase of 80% to 500%) | (+) ((+) means an increase of about 5% to 80%) |  |  | (+) ((+) means an increase of about 5% to 80%) | (+) ((+) means an increase of about 5% to 80%) | (+) ((+) means an increase of about 5% to 80%)
O=NN(CCCl)C(=O)NCCCl [carmustine] | (++) ((++) means an increase of 80% to 500%) | (+) ((+) means an increase of about 5% to 80%) | (+) ((+) means an increase of about 5% to 80%) | (+) ((+) means an increase of about 5% to 80%) | (+) ((+) means an increase of about 5% to 80%) | (+) ((+) means an increase of about 5% to 80%) | (+) ((+) means an increase of about 5% to 80%)
Nc1nc(Cl)nc2c1ncn2[C@H]1C[C@H](O)[C@@H](CO)O1 [cladribine] | (++) ((++) means an increase of 80% to 500%) | (++) ((++) means an increase of 80% to 500%) | (+) ((+) means an increase of about 5% to 80%) |  | (+) ((+) means an increase of about 5% to 80%) | (+) ((+) means an increase of about 5% to 80%) | (+) ((+) means an increase of about 5% to 80%)
O=C(O)Cc1ccccc1Nc1c(Cl)cccc1Cl [diclofenac] | (+) ((+) means an increase of about 5% to 80%) | (+) ((+) means an increase of about 5% to 80%) |  | (++) ((++) means an increase of 80% to 500%) | (+) ((+) means an increase of about 5% to 80%) | (+) ((+) means an increase of about 5% to 80%) | (+) ((+) means an increase of about 5% to 80%)
COC(=O)C1=C(C)NC(C)=C(C(=O)OC)C1c1ccccc1[N+](=O)[O-] [nifedipine] | (+) ((+) means an increase of about 5% to 80%) | (+) ((+) means an increase of about 5% to 80%) | (+) ((+) means an increase of about 5% to 80%) |  | (+) ((+) means an increase of about 5% to 80%) | (+) ((+) means an increase of about 5% to 80%) | (+) ((+) means an increase of about 5% to 80%)
C=CC[C@@H]1/C=C(\C)C[C@H](C)C[C@H](OC)[C@H]2O[C@@](O)(C(=O)C(=O)N3CCCC[C@H]3C(=O)O[C@H](/C(C)=C/[C@@H]3CC[C@@H](O)[C@H](OC)C3)[C@H](C)[C@@H](O)CC1=O)[C@H](C)C[C@@H]2OC [tacrolimus] | (+) ((+) means an increase of about 5% to 80%) |  | (+) ((+) means an increase of about 5% to 80%) | (+) ((+) means an increase of about 5% to 80%) | (++) ((++) means an increase of 80% to 500%) | (+) ((+) means an increase of about 5% to 80%) | (+) ((+) means an increase of about 5% to 80%)
CC/C(=C(\c1ccccc1)c1ccc(OCCN(C)C)cc1)c1ccccc1 [tamoxifen] | (+) ((+) means an increase of about 5% to 80%) | (++) ((++) means an increase of 80% to 500%) | (+) ((+) means an increase of about 5% to 80%) |  | (+) ((+) means an increase of about 5% to 80%) | (+) ((+) means an increase of about 5% to 80%) | (+) ((+) means an increase of about 5% to 80%)
